Reference: US20260022122A1 (Checkmate Therapeutics Inc., priority 2022, published 2026)

Experiments:
NamPT = NamPT (Homo sapiens (Human), UniProt P43490); test: Measurement of NamPT inhibitory ability IC50 (NamPT colorimetric assay kit, Abcam ab221819); type: biochemical; settings: NamPT recombinant protein, WST-1 absorbance at 450 nm; class key in μM
Experimental: To test the effect of the compound prepared in each Example on the substrate decomposition rate (Vmax/min) mediated by NamPT enzyme, IC50 was calculated. In this experiment, the NamPT colorimetric assay kit (ab221819) produced by Abcam was used, and Graph prism software was used for IC50 calculation. PRPP, ATP, NMNAT1, NamPT recombinant proteins, and various concentrations of the compound of each Example (half-log step dilution from 100 μM) were added to nicotinamide to synthesize nicotinamide adenine dinucleotide (NAD) from the nicotinamide, and a total of 60 μL of the reaction solution was reacted at room temperature for 1 hour. WST-1 formazan converted by NAD generated by adding WST-1 was measured. The result of the reaction was obtained by the following formula by measuring absorbance using EnVision2105 (PerkinElmer) at 450 nm for 60 minutes at 2-minute intervals.
In Mathematical Formula 1, T1 and T2 are arbitrary times, and A1 and A2 represent the absorbance measured at T1 and T2 at 450 nm, respectively.
The results of measuring the NamPT inhibition activity of the compound of each Example obtained through the above experiment are shown in Table 1 in the unit of IC50 (nM), and the result values are expressed as follows.

[1] = test system: NAPRT negative lung cancer cell lines (H322, H661, H1155); test: Proliferation inhibition on NAPRT negative lung cancer cell lines (CellTiter-Glo); type: cell-based; settings: 72 hours
Experimental: (§1) A compound showing a low IC50 value was selected from the compounds of the above Examples and treated an NAPRT positive or negative lung cancer cell line with various concentrations, and then the change in cell viability for each cell line was measured. The results are presented in a graph (a few materials known as NamPT inhibitors were used as controls). A total of 9 cancer cells lines (three NAPRT negative cell lines: H322, H661, and H1155; and six NAPRT positive cell lines: H1993, H2122, H2030, H1975, H1299, and HBEC30) were used. 5% fetal bovine serum (Gibco, US) and 1% penicillin/streptomycin (Gibco) were added to a medium, and the cells were cultured in a 37° C. constant temperature incubator containing 5% CO2. For compound treatment, each type of cells were seeded at 3×10^3 cells/well in a 96-well plate (Corning) and then incubated in a 37° C. constant temperature incubator containing 5% CO2 for 18 hours. […] Afterwards, the cells were cultured in an incubator containing 5% CO2 at 37° C. for 72 hours. To confirm the effect of inhibiting the proliferation of cancer cells, a CellTiter-Glo Luminescent Cell Viability Assay (Promega) was used. After treating the cells with 10 μL of CellTiter-Glo luciferase reagent and leaving them for 15 minutes at room temperature, the luminescence of each well was measured using EnVision2105 (PerkinElmer). The change in cell viability by the compound diluted at the concentration of each step was converted into a relative % value for the amount of luminescence shown by DMSO treatment. EC50 is expressed as the concentration of each compound that induces 50% of the maximum luminescence level.
(§2) The results of measuring the proliferation inhibition ability of the compound of each Example on nine types of lung cancer cell lines, obtained through the above experiment, are shown in Table 2 in the unit of EC50 (μM). The resulting values are expressed as follows.

[2] = test system: NAPRT positive cell lines (H1993, H2122, H2030, H1975, H1299, HBEC30); test: Proliferation inhibition on NAPRT positive lung cancer cell lines (CellTiter-Glo); type: cell-based; settings: 72 hours
Experimental: as §1, §2

[3] = test system: NAPRT-negative gastric cancer cell line HGC27; test: NAPRT-negative cancer cell xenograft model (% tumor growth inhibition); type: in vivo; settings: 50 mg/kg, orally once a day from day 1 to day 21, HGC27 xenograft in BALB/c nude mice
Description: Based on the effect of inhibiting proliferation limited to NAPRT-negative cancer cell lines according to the experiment of the proliferation inhibitory effect (EC50) on NAPRT-negative cancer cell lines, the pharmacological effect in a xenograft model using NAPRT-negative cancer cell lines was verified. Five-week-old female BALB/c nude mice were purchased and used in the experiment after acclimation for one week. The cancer cells used in the experiment were a NAPRT-negative gastric cancer cell line HGC27, and cultured in […] medium (Gibco) to which 5% Fetal Bovine Serum (Gibco, US) and 1% penicillin/streptomycin (Gibco) were added. HGC27 was suspended in PBS (Welgene) and transplanted to have 5×10^6 cells into each mouse. After adding Matrigel in the same value, tumors were induced by subcutaneous injection into the right flank using a 1 mL syringe. After 3 weeks of breeding, when the average tumor size was 100 to 150 mm^3, mice were randomly divided into groups of 7 and administered each compound. The compound was prepared in an excipient (0.5% DMSO/2% Tween 80/20% PEG 400/20% b-HPCD in 77.5% DW) as an agent for oral administration, and administered orally once a day from day 1 to day 21 to the mouse model in which a tumor was generated. From day 1 to day 21, the body weight was measured once daily, and the tumor size was measured three times a week. The tumor size was measured using a caliper and calculated using the following formula.
In Mathematical Formula 2, W is a length, and d is a width.
On day 21, all animals were euthanized, blood samples were collected, and tumors were removed. To evaluate blood toxicity, blood was collected from an EDTA-containing blood collection tube, and subjected to a general blood test (complete blood count, CBC) and a blood biochemical test. Isolated tumors were weighed after photographing and a portion was used to measure NAD to verify the on-target efficacy of the compound. To measure NAD, a NAD/NADH Quantitation Colorimetric Kit (K337) produced by BioVision was used.
The pharmacological effect of each compound in the NAPRT-negative cancer cell xenograft models, obtained in this experiment, is shown in Table 3 in the unit of % TGI (tumor growth inhibition).

Chain of NamPT (P43490 whole entry): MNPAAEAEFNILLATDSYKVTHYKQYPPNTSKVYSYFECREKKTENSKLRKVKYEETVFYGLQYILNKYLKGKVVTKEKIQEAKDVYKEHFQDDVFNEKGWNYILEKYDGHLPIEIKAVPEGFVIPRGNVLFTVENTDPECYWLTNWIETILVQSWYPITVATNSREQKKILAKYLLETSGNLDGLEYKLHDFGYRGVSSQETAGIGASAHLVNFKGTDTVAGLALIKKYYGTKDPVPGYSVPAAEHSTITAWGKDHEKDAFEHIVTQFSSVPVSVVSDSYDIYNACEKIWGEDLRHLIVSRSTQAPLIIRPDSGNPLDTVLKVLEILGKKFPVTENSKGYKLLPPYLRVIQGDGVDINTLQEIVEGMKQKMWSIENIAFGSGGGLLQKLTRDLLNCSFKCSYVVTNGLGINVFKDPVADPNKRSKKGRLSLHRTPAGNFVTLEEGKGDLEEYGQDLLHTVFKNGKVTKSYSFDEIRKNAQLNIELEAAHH

SMILES | IC50 (NamPT) [µM] | EC50 [1] [µM] | EC50 [2] [µM] | % TGI (Tumor Growth inhibition) [3] [%]
O=C(NCc1ccc(-c2nc3ccc(Cl)cc3o2)cc1)c1cnc2nccn2c1 [Example 4, N-[[4-(6-chloro-1,3-benzoxazol-2-yl)phenyl]methyl]imidazo[1,2-a]pyrimidin-6-carboxamide] | < 0.05 | < 0.05 | > 101 | 80
Cc1cc2nc(-c3ccc(CNC(=O)c4cnc5nccn5c4)cc3)oc2cc1Cl [Example 10, N-[[4-(6-chloro-5-methyl-1,3-benzoxazol-2-yl)phenyl]methyl]imidazo[1,2-a]pyrimidin-6-carboxamide] | < 0.05 | < 0.05 | > 101 | 61
O=C(NCc1ccc(-c2nc3cc(C(F)(F)F)ccc3o2)cc1)c1cnc2nccn2c1 [Example 13, N-[[4-[5-(trifluoromethyl)-1,3-benzoxazol-2-yl]phenyl]methyl]imidazo[1,2-a]pyrimidin-6-carboxamide] | < 0.05 | < 0.05 | > 101 | 63
